Results published in patent US10912781B2, “Pharmaceutical composition comprising licarbazepine acetate” (BIAL-Portela & C.A., S.A., priority 2007, dated 2021).

Experiment: Bulk density / apparent volume (Ph. Eur. edn. 6, test 2.9.15 or USP 31 <616>)
Type: physicochemical
Conditions: API prior to granulation / preparation prior to forming the final formulation
Protocol: Suitable methods for determining the bulk density of the preparation will be well known to the skilled chemist, for example, the European Pharmacopeia edition 6, Test 2.9.15 “apparent volume”, pages 285-286, EDQM, 2007, or USP 31, vol. 1 test <616> page 231-232, The United States Pharmacopeia Convention, 2008. The apparent density of a compressed formulation is measured in terms of mass and volume of the formulation and is well within the capabilities of the skilled person.
A suitable method is described below: • Apparatus • settling apparatus capable of producing in 1 minute 250±15 taps from a height of 3±0.2 mm. The support for the graduated cylinder with its holder, has a mass of 450±5 g • a 250 ml graduated cylinder (2 ml intervals) with a mass of 220±40 g • Method • Into a dry cylinder, introduce without compacting, 100.0 g […] of the test substance. Secure the cylinder in its holder. Read the unsettled apparent volume (V0) to the nearest milliliter. Carry out 10, 500 and 1250 taps and read the corresponding volumes V10, V500, V1250, to the nearest milliliter. If the difference between V500 and V1250 is greater than 2 ml, carry out another 1250 taps. […]
Bulk/apparent density may then be determined in g/ml using the following formula: m/V0 where m is the mass in grams and V0 the unsettled apparent volume

For licarbazepine acetate, the Bulk density was “less than 0.3 g/mL” and the Bulk density (listed as API) was “about 0.28 g/mL”.
